Measured values as given in patent US5663205A, “Pharmaceutical composition for use in glaucoma treatment” (Senju Pharmaceutical Co. Ltd., priority 1992, dated 1997).

Test system: anterior ocular segment
Test: Test Example 7 (2)(c): ocular local toxicity, visual observation on the anterior ocular segment, 28 days instillation
Format: in vivo, Japanese white rabbits
Set-up: Cornea (opacity x area), numerical rating / Iris, numerical rating / Conjunctiva (A) redness of palpebral conjunctiva, numerical rating / Conjunctiva (B) edema of palpebral conjunctiva, numerical rating / Conjunctiva (C) redness of bulbar conjunctiva, numerical rating / Conjunctiva (D) nictitating membrane, numerical rating / Conjunctiva (E) discharge, numerical rating / Total numerical rating: scale not given here
Procedure: (2) Ocular local toxicity test in rabbits of 1.0% and 0.5% ophthalmic solutions of amosulalol hydrochloride by consecutive instillation for 28 days:
With 15 male Japanese white rabbits divided into 3 groups each consisting of 5 rabbits, 1.0% and 0.5% ophthalmic solutions of amosulalol hydrochloride as well as physiological saline as a control were applied in one drop (0.05 ml) per time to the right eye of each rabbit alone, four times a day at a regular interval of 2.5 hours, for 28 days consecutively with the left eye being left untreated.
(c) Visual observation on the anterior ocular segment; Based on the below-described criteria for assessment of ocular injuries (Gendai no Rinsho (Present-Day Clinics) Vol. 4, No. 4, pp. 227-289, 1970), numerical rating was performed on 1.0% and 0.5% ophthalmic solutions of amosulalol hydrochloride before instillation as well as on the day (Day 1) of initiating the instillation and on the 2nd, 4th, 7th, 14th, 21st, 28th days after initiating the instillation but each time after completion of the instillation and on the morning of the last instillation (29th day). With reference to the results of numerical rating, a numerical rating of not less than 1 as determined on either of the items was understood to be judged "injurious to the eye" while numerical ratings of 0 and 0.5 were considered "not injurious to the eye".
Criteria for assessment of ocular injuries:
Tables 5 and 6 show the results of the visual observation on the anterior ocular section, being specified above under Item (c), as obtained with 1.0% and 0.5% ophthalmic solutions of amosulalol hydrochloride, respectively, wherein each value given represents a mean for 5 cases.
In Tables 5 and 6, the numerical rating of cornea means the value obtained by multiplying a value in "(A) Degree of Opacity" by that of "(B) Area of opacity" in the above-described "Criteria for assessment of ocular injuries".

[1] = 0.5% solution, before instillation, mean of 5
[2] = 0.5% solution, day 1, mean of 5
[3] = 0.5% solution, day 2, mean of 5
[4] = 0.5% solution, day 4, mean of 5
[5] = 0.5% solution, day 7, mean of 5
[6] = 0.5% solution, day 14, mean of 5
[7] = 0.5% solution, day 21, mean of 5
[8] = 0.5% solution, day 28, mean of 5
[9] = 0.5% solution, day 29, mean of 5
[10] = 1.0% solution, before instillation, mean of 5
[11] = 1.0% solution, day 1, mean of 5
[12] = 1.0% solution, day 2, mean of 5
[13] = 1.0% solution, day 4, mean of 5
[14] = 1.0% solution, day 7, mean of 5
[15] = 1.0% solution, day 14, mean of 5
[16] = 1.0% solution, day 21, mean of 5
[17] = 1.0% solution, day 28, mean of 5
[18] = 1.0% solution, day 29, mean of 5

Q: For `COc1ccccc1OCCNCC(O)c1ccc(C)c(S(N)(=O)=O)c1.Cl` (centres unmarked) [amosulalol hydrochloride, 5-[1-hydroxy-2-[2-(2-methoxyphenoxy)ethylamino]ethyl]-2-methylbenzenesulfonamide hydrochloride], which “Conjunctiva (A) redness of palpebral conjunctiva, numerical rating” value (“Conjunctiva (A) redness” for short) [1] is on record?
A: 0

Q: What about the “Conjunctiva (B) edema of palpebral conjunctiva, numerical rating” value (from here on “Conjunctiva (B) edema”) [1] of the same compound?
A: 0

Q: And the “Conjunctiva (C) redness of bulbar conjunctiva, numerical rating” value (“Conjunctiva (C) redness” below) [1]?
A: 0

Q: What about the “Conjunctiva (D) nictitating membrane, numerical rating” value (“Conjunctiva (D) nictitating membrane” below) [1] of the same compound?
A: 0

Q: And the “Conjunctiva (E) discharge, numerical rating” value (shortened to “Conjunctiva (E) discharge”) [1]?
A: 0

Q: What about the “Cornea (opacity x area), numerical rating” value (from here on “Cornea (opacity x area)”) [1] of the same compound?
A: 0

Q: And the “Iris, numerical rating” value [1]?
A: 0

Q: And the Total numerical rating [1]?
A: 0

Q: What about the “Conjunctiva (A) redness” value [2] of the same compound?
A: 0

Q: What about the “Conjunctiva (B) edema” value [2] of the same compound?
A: 0

Q: What about the “Conjunctiva (C) redness” value [2] of the same compound?
A: 0.4

Q: What about the “Conjunctiva (D) nictitating membrane” value [2] of the same compound?
A: 0

Q: What about the “Conjunctiva (E) discharge” value [2] of the same compound?
A: 0

Q: What about the “Cornea (opacity x area)” value [2] of the same compound?
A: 0

Q: And the “Iris, numerical rating” value [2]?
A: 0

Q: What about the Total numerical rating [2] of the same compound?
A: 0.4

Q: What about the “Conjunctiva (A) redness” value [3] of the same compound?
A: 0

Q: And the “Conjunctiva (B) edema” value [3]?
A: 0

Q: What about the “Conjunctiva (C) redness” value [3] of the same compound?
A: 0.4

Q: And the “Conjunctiva (D) nictitating membrane” value [3]?
A: 0

Q: And the “Conjunctiva (E) discharge” value [3]?
A: 0

Q: And the “Cornea (opacity x area)” value [3]?
A: 0

Q: And the “Iris, numerical rating” value [3]?
A: 0

Q: And the Total numerical rating [3]?
A: 0.4

Q: What about the “Conjunctiva (A) redness” value [4] of the same compound?
A: 0

Q: And the “Conjunctiva (B) edema” value [4]?
A: 0

Q: What about the “Conjunctiva (C) redness” value [4] of the same compound?
A: 0.2

Q: And the “Conjunctiva (D) nictitating membrane” value [4]?
A: 0

Q: What about the “Conjunctiva (E) discharge” value [4] of the same compound?
A: 0

Q: What about the “Cornea (opacity x area)” value [4] of the same compound?
A: 0

Q: What about the “Iris, numerical rating” value [4] of the same compound?
A: 0

Q: What about the Total numerical rating [4] of the same compound?
A: 0.2

Q: What about the “Conjunctiva (A) redness” value [5] of the same compound?
A: 0

Q: And the “Conjunctiva (B) edema” value [5]?
A: 0

Q: What about the “Conjunctiva (C) redness” value [5] of the same compound?
A: 0.2

Q: What about the “Conjunctiva (D) nictitating membrane” value [5] of the same compound?
A: 0

Q: And the “Conjunctiva (E) discharge” value [5]?
A: 0

Q: What about the “Cornea (opacity x area)” value [5] of the same compound?
A: 0

Q: What about the “Iris, numerical rating” value [5] of the same compound?
A: 0

Q: And the Total numerical rating [5]?
A: 0.2

Q: What about the “Conjunctiva (A) redness” value [6] of the same compound?
A: 0

Q: And the “Conjunctiva (B) edema” value [6]?
A: 0

Q: What about the “Conjunctiva (C) redness” value [6] of the same compound?
A: 0.2

Q: And the “Conjunctiva (D) nictitating membrane” value [6]?
A: 0

Q: And the “Conjunctiva (E) discharge” value [6]?
A: 0

Q: What about the “Cornea (opacity x area)” value [6] of the same compound?
A: 0

Q: And the “Iris, numerical rating” value [6]?
A: 0

Q: What about the Total numerical rating [6] of the same compound?
A: 0.2

Q: What about the “Conjunctiva (A) redness” value [7] of the same compound?
A: 0

Q: And the “Conjunctiva (B) edema” value [7]?
A: 0

Q: And the “Conjunctiva (C) redness” value [7]?
A: 0.1

Q: And the “Conjunctiva (D) nictitating membrane” value [7]?
A: 0

Q: And the “Conjunctiva (E) discharge” value [7]?
A: 0

Q: What about the “Cornea (opacity x area)” value [7] of the same compound?
A: 0

Q: What about the “Iris, numerical rating” value [7] of the same compound?
A: 0

Q: What about the Total numerical rating [7] of the same compound?
A: 0.1

Q: And the “Conjunctiva (A) redness” value [8]?
A: 0

Q: And the “Conjunctiva (B) edema” value [8]?
A: 0

Q: What about the “Conjunctiva (C) redness” value [8] of the same compound?
A: 0.1

Q: And the “Conjunctiva (D) nictitating membrane” value [8]?
A: 0

Q: And the “Conjunctiva (E) discharge” value [8]?
A: 0

Q: What about the “Cornea (opacity x area)” value [8] of the same compound?
A: 0

Q: And the “Iris, numerical rating” value [8]?
A: 0

Q: What about the Total numerical rating [8] of the same compound?
A: 0.1

Q: What about the “Conjunctiva (A) redness” value [9] of the same compound?
A: 0

Q: And the “Conjunctiva (B) edema” value [9]?
A: 0

Q: What about the “Conjunctiva (C) redness” value [9] of the same compound?
A: 0

Q: What about the “Conjunctiva (D) nictitating membrane” value [9] of the same compound?
A: 0

Q: And the “Conjunctiva (E) discharge” value [9]?
A: 0

Q: What about the “Cornea (opacity x area)” value [9] of the same compound?
A: 0

Q: And the “Iris, numerical rating” value [9]?
A: 0

Q: And the Total numerical rating [9]?
A: 0

Q: And the “visual observation of the anterior ocular segment” value (1.0% and 0.5% ophthalmic solutions, 4 times a day, 28 days)?
A: no abnormality

Q: And the “Conjunctiva (A) redness” value [10]?
A: 0

Q: What about the “Conjunctiva (B) edema” value [10] of the same compound?
A: 0

Q: What about the “Conjunctiva (C) redness” value [10] of the same compound?
A: 0

Q: What about the “Conjunctiva (D) nictitating membrane” value [10] of the same compound?
A: 0

Q: What about the “Conjunctiva (E) discharge” value [10] of the same compound?
A: 0

Q: And the “Cornea (opacity x area)” value [10]?
A: 0

Q: What about the “Iris, numerical rating” value [10] of the same compound?
A: 0

Q: And the Total numerical rating [10]?
A: 0

Q: And the “Conjunctiva (A) redness” value [11]?
A: 0.2

Q: What about the “Conjunctiva (B) edema” value [11] of the same compound?
A: 0

Q: What about the “Conjunctiva (C) redness” value [11] of the same compound?
A: 0.5

Q: And the “Conjunctiva (D) nictitating membrane” value [11]?
A: 0

Q: And the “Conjunctiva (E) discharge” value [11]?
A: 0

Q: And the “Cornea (opacity x area)” value [11]?
A: 0

Q: What about the “Iris, numerical rating” value [11] of the same compound?
A: 0

Q: What about the Total numerical rating [11] of the same compound?
A: 0.7

Q: What about the “Conjunctiva (A) redness” value [12] of the same compound?
A: 0.2

Q: And the “Conjunctiva (B) edema” value [12]?
A: 0

Q: What about the “Conjunctiva (C) redness” value [12] of the same compound?
A: 0.5

Q: And the “Conjunctiva (D) nictitating membrane” value [12]?
A: 0

Q: What about the “Conjunctiva (E) discharge” value [12] of the same compound?
A: 0

Q: What about the “Cornea (opacity x area)” value [12] of the same compound?
A: 0

Q: What about the “Iris, numerical rating” value [12] of the same compound?
A: 0

Q: What about the Total numerical rating [12] of the same compound?
A: 0.7

Q: And the “Conjunctiva (A) redness” value [13]?
A: 0.1

Q: What about the “Conjunctiva (B) edema” value [13] of the same compound?
A: 0

Q: And the “Conjunctiva (C) redness” value [13]?
A: 0.5

Q: And the “Conjunctiva (D) nictitating membrane” value [13]?
A: 0

Q: What about the “Conjunctiva (E) discharge” value [13] of the same compound?
A: 0

Q: And the “Cornea (opacity x area)” value [13]?
A: 0

Q: What about the “Iris, numerical rating” value [13] of the same compound?
A: 0

Q: And the Total numerical rating [13]?
A: 0.6

Q: And the “Conjunctiva (A) redness” value [14]?
A: 0.1

Q: And the “Conjunctiva (B) edema” value [14]?
A: 0

Q: And the “Conjunctiva (C) redness” value [14]?
A: 0.3

Q: What about the “Conjunctiva (D) nictitating membrane” value [14] of the same compound?
A: 0

Q: And the “Conjunctiva (E) discharge” value [14]?
A: 0

Q: And the “Cornea (opacity x area)” value [14]?
A: 0

Q: And the “Iris, numerical rating” value [14]?
A: 0

Q: And the Total numerical rating [14]?
A: 0.4

Q: What about the “Conjunctiva (A) redness” value [15] of the same compound?
A: 0.1

Q: What about the “Conjunctiva (B) edema” value [15] of the same compound?
A: 0

Q: And the “Conjunctiva (C) redness” value [15]?
A: 0.3

Q: What about the “Conjunctiva (D) nictitating membrane” value [15] of the same compound?
A: 0

Q: And the “Conjunctiva (E) discharge” value [15]?
A: 0

Q: What about the “Cornea (opacity x area)” value [15] of the same compound?
A: 0

Q: What about the “Iris, numerical rating” value [15] of the same compound?
A: 0

Q: And the Total numerical rating [15]?
A: 0.4

Q: What about the “Conjunctiva (A) redness” value [16] of the same compound?
A: 0.1

Q: What about the “Conjunctiva (B) edema” value [16] of the same compound?
A: 0

Q: What about the “Conjunctiva (C) redness” value [16] of the same compound?
A: 0.3

Q: And the “Conjunctiva (D) nictitating membrane” value [16]?
A: 0

Q: And the “Conjunctiva (E) discharge” value [16]?
A: 0

Q: And the “Cornea (opacity x area)” value [16]?
A: 0

Q: What about the “Iris, numerical rating” value [16] of the same compound?
A: 0

Q: And the Total numerical rating [16]?
A: 0.4

Q: What about the “Conjunctiva (A) redness” value [17] of the same compound?
A: 0.1

Q: And the “Conjunctiva (B) edema” value [17]?
A: 0

Q: What about the “Conjunctiva (C) redness” value [17] of the same compound?
A: 0.3

Q: And the “Conjunctiva (D) nictitating membrane” value [17]?
A: 0

Q: What about the “Conjunctiva (E) discharge” value [17] of the same compound?
A: 0

Q: And the “Cornea (opacity x area)” value [17]?
A: 0

Q: And the “Iris, numerical rating” value [17]?
A: 0

Q: And the Total numerical rating [17]?
A: 0.4

Q: What about the “Conjunctiva (A) redness” value [18] of the same compound?
A: 0

Q: And the “Conjunctiva (B) edema” value [18]?
A: 0

Q: And the “Conjunctiva (C) redness” value [18]?
A: 0

Q: And the “Conjunctiva (D) nictitating membrane” value [18]?
A: 0

Q: What about the “Conjunctiva (E) discharge” value [18] of the same compound?
A: 0

Q: And the “Cornea (opacity x area)” value [18]?
A: 0

Q: What about the “Iris, numerical rating” value [18] of the same compound?
A: 0

Q: What about the Total numerical rating [18] of the same compound?
A: 0

Q: And the “side effects such as ocular irritation” value (ophthalmic solution)?
A: free from side effects such as ocular irritation
